For orientation: solubility means the dissolved amount per volume that the medium holds. A higher solubility goes with a readily soluble substance. The term IC50 denotes the concentration at which inhibition is half-maximal. Read a low IC50 as inhibition by little substance.

Converted amounts (≈) assume the structure as drawn.

This is an account of results in patent EP4692091A1, “CA[…], AND PHARMACEUTICAL COMPOSITION, PREPARATION METHOD THEREFOR AND USE THEREOF” (Changchun Genescience Pharmaceutical Co., Ltd., priority 2023, dated 2024).

Series [1] can be described thus: Kinetic solubility test in PBS 7.4. The format is physicochemical. Particulars: pH 7.4, aqueous buffer. How it is done: 10 mM stock solutions of the test substances 6-2, 11-2, 17-2, Dxd, and the control drugs progesterone and diclofenac were prepared using DMSO respectively.
15 µL of 10 mM stock solution of each of the test substances was added to a corresponding position of a corresponding 96-well plate in a specified sequence. 485 µL of the PBS 7.4 was added to a corresponding vial on a sample plate. The experiment was run in duplicate. Each vial was additionally provided with a stirring rod and was plugged. Then, the sample plate was transferred in a thermostatic mixer, and oscillated at a revolving speed of 1,100 rpm at 25°C for 2 h. 2 h later, the plug was removed, the stirring rod was attracted away with a large magnet, and then the sample was transferred from the sample plate to the filter plate. Negative pressure was generated using a vacuum pump to filter the sample. 5 µL of filtrate and 5 µL of blank DMSO were transferred to another sample plate, and then 490 µL of internal standard water (acetonitrile:water=1:1) containing the internal standard was added. Depending on peak shapes, a certain proportion of internal standard water may be used to dilute the sample diluent to give better peak shapes. […]
The sample filtrate was analyzed and quantified by qualitative and quantitative LC/MS of standard substance peaks at known concentrations. […]

A short description of series [2]: Stability of compounds in human plasma. The format is in vitro ADME. Conditions: 37°C, 5 µmol/L. The procedure: • (1) 199 µL of human plasma was added to the culture plate of each cell. The culture plate was preheated to 37°C, and kept at this temperature for 15 min. • (2) After preincubation, 1 µL of 1 mmol/L each test compound and 1 µL of 1 mmol/L control compound were added to 199 µL of plasma, so that a final concentration of each test compound was 5 µmol/L and that of the control compound was 5 µmol/L. The final concentration of the organic solvent was 0.5%. The experiment would be duplicated twice. • (3) Reaction samples were incubated at 37°C. • (4) The reaction was stopped by adding 600 µL of cold methanol containing the internal standard at 0, 1, 2, 6, and 24 h. Each sample was vortex mixed for 10 min, and then centrifuged at 3,220 g for 30 min to precipitate the protein. […] Based on the signal response and peak shapes of liquid chromatography-mass spectrometry (LC-MS), the supernatant would be diluted with ultrapure water.
All calculations were performed using Microsoft Excel. The peak area ratio was determined from the chromatogram of extracted ions. The percentage of compounds remaining at each time point was calculated as per the following formula: Residual percentagetmin (%) = peak area ratiotmin /peak areat0 × 100 [formula]

A further series concerns the target CYP1A2 (Homo sapiens, UniProt P05177). The series can be described thus: CYP inhibition in human hepatomicrosomes, CYP1A2.

CYP1A2, sequence (P05177 whole entry): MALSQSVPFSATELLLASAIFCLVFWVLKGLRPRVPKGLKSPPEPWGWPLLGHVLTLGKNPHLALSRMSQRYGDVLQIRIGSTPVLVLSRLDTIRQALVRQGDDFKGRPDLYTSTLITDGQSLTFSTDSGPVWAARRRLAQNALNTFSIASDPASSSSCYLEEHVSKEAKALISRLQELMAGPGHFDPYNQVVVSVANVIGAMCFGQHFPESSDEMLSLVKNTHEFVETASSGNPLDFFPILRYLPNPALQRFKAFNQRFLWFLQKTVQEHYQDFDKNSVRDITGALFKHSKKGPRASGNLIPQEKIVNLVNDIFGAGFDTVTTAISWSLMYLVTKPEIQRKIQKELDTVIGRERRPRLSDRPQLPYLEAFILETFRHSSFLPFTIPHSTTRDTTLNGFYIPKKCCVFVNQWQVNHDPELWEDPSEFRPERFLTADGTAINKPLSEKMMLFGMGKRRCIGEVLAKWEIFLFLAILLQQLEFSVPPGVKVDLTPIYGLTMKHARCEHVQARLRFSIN

In series [1], `CC[C@@]1(O)C(=O)OCc2c1cc1n(c2=O)Cc2c-1nc1cc(F)c(C)c3c1c2[C@@H](NC(=O)CO)CC3` [Dxd] gave a solubility at 2 h of 11.3 µM (≈ 5.58 µg/mL). Further, in series [2] (0 h), the “Residual percentage (%)” value was found to be 100.00%. In series [2] (1 h, read-out: Residual percentage (%)), the remaining at 1 h, 5 µM stood at 89.4%. Also, the remaining at 2 h, 5 µM in series [2] (2 h, read-out: Residual percentage (%)) is 86.8%. Moreover, in series [2] (6 h, read-out: Residual percentage (%)), the remaining at 6 h, 5 µM is 86.4%. The remaining at 24 h, 5 µM in series [2] (24 h, read-out: Residual percentage (%)) worked out at 82.3%. Further, at CYP1A2, the IC50 is > 30 µM.
